Test [1] concerns the target T1, Importin-β (Homo sapiens, UniProt Q14974).
T1 construct: GST (N, cleaved yes); made in house; host or cells: Escherichia coli Rosetta
Nature of the test: Isothermal titration calorimetry (ITC), Importin-β. The class given is binding. The conditions noted are these: for ITC profile (exothermic / endothermic): 25 °C. The text has this:
Homo sapiens GM130 (a.a. 1–48), GM130 (a.a. 1–85), and Importin-β were amplified by PCR and ligated into pGEX-6P-1 (GE Healthcare). H. sapiens full-length Importin-α and Mus musculus Importin-α were amplified by PCR and ligated into modified pGEX-6P-1 (GE Healthcare) that produces proteins with 6-His at the C–terminus. Mouse Importin-α shares ~95% identity with human Importin-α over the full protein sequence, so we used the former for biochemical and structural studies. GM130-S25D (a.a. 1–48), GM130-S25D (a.a. 1–85), GM130-S25D/K14A (a.a. 1–85), and GM130-S25D/K34A (a.a. 1–85) mutants were created by PCR-based mutagenesis and were verified by sequencing. A list of primer sequences used in this study is shown in Supplementary Table 1.
Binding affinities of different GM130 proteins to Importin-α and Importin-β were measured by ITC (MicroCal iTC200). All proteins were dialyzed against ITC buffer (20 mM HEPES pH 7.4, 1 mM DTT) with either 50 or 200 mM NaCl. Protein concentrations were determined spectrophotometrically with respective extinction coefficients. ITC was performed at 25 °C. The respective heat changes were fitted using a one-sites binding model.
(In ITC the heat of successive injections is recorded.)

The target in test [2] is T2, Importin-α(ΔIBB) (a.a. 70–524) (Mus musculus, UniProt P52293).
T2 construct: Importin-α lacking the IBB domain (a.a. 70–524; hereafter Importin-α(ΔIBB)); GST (N); made in house; host or cells: Escherichia coli Rosetta
The experiment in a line: Isothermal titration calorimetry (ITC), Importin-α(ΔIBB). The class given is binding. The conditions noted are these: 200 mM NaCl. The text has this: Phosphorylation of GM130 on Ser-25 is correlated with p115 dissociation, with this process appearing to be specific to mitosis and being responsible for reduction of p115-mediated vesicle fusion to Golgi membranes[5]–[7],[9],[10]. The N-terminal region of GM130 and the p115 C-terminus interact[11],[12], so we purified recombinant proteins containing these two regions and then assessed their binding affinity by isothermal titration calorimetry (ITC). The wild type GM130 N-terminal region (a.a. 1-85; hereafter GM130-WT) directly bound p115 (a.a. 780–930; hereafter p115-CTD) (Fig. 1a). Furthermore, we examined if GM130 phosphorylation reduces the binding affinity for p115. […] We found in competition-binding assays that p115-CTD pulldown by GST-GM130-S25D was reduced when we added increasing amounts of Importin-α lacking the IBB domain (a.a. 70–524; hereafter Importin-α(ΔIBB)) (Fig. 1c). […] Therefore, we propose that binding of Importin-α to GM130 could be primarily responsbile for preventing interaction between p115 and GM130 during mitosis.
Homo sapiens GM130 (a.a. 1–48), GM130 (a.a. 1–85), and Importin-β were amplified by PCR and ligated into pGEX-6P-1 (GE Healthcare). […]
Binding affinities of different GM130 proteins to Importin-α and Importin-β were measured by ITC (MicroCal iTC200). […] Protein concentrations were determined spectrophotometrically with respective extinction coefficients. […]

In test [3] the test system is p115 associated with GM130. The experiment in a line: Immuno-precipitation of p115 with GM130 antibody, RO-3306-treated nocodazole-arrested HEK293T cells. Format: cell-based. Particulars: RO-3306-treated vs untreated, 10 µM/ml, 2 h; three independent experiments. Here is the method:
(§1) To pull down endogenous GM130, HEK293T cells were synchronized via nocodazole treatment and lysed in a buffer containing 50 mM Tris–HCl (pH 7.4), 150 mM NaCl, 1 mM EDTA, 10% glycerol, 1% Triton, 0.15% SDS, protease inhibitor cocktail (Roche), and 1 mM PMSF. Clarified lysates were pre-incubated with GM130 antibody (Abcam ab52649) for 12 h at 4 °C, followed by one hour incubation with IgG sepharose^TM 6 Fast Flow (GE Healthcare). Beads were then washed three times with buffer (20 mM HEPES pH 7.4, 150 mM NaCl, 1.5 mM MgCl2, 10% glycerol, 0.1% Triton). Protein samples were boiled in SDS sample buffer and analyzed by SDS–PAGE, followed by Western blotting analysis.
(§2) To prepare Cdk1 inhibitor treated lysates for GM130 pull-down assays, WT HEK293T cells were synchronized by 30 µM of nocodazole for 13 h, followed by treatment of Cdk1 inhibitor RO-3306 (10 µM/ml) (Sigma, cat#SML0569) for 2 h.
(§3) Sup ple me ntary Figu re 5. Cell-base d e xam ination of the K34A mutation of G M130. a, Representative fluorescent images of w ild-type and two K34A mutant cell lines at metaphase.
(§4) Sca le b a r : 1 0 µm. b, Images of nocodaz o le-ar r e st ed H EK 2 9 3 T ce ll s without (left) and w ith (right) RO-3306 treatment acquired by bright-field illum ination. Sc ale ba r: […]

The next test deals with Cdk1. The conditions noted are these: 1-h RO-3306 treatment; ref [23]; cited from earlier work.
For test [4], the system named is Importin-α associated with GM130. The experiment in a line: Immuno-precipitation of Importin-α with GM130 antibody, RO-3306-treated nocodazole-arrested HEK293T cells. Format: cell-based. Particulars: RO-3306-treated vs untreated, 10 µM/ml, 2 h; three independent experiments. The protocol:
as §1, §2, §3, §4

For test [5], the target named is T1, Importin-β. The experiment in a line: Size exclusion chromatography co-migration with Importin-β. Format: binding. Particulars: Superdex 200, 20 mM HEPES pH 7.4, 50 mM NaCl, 3 mM DTT, 1:1. The protocol: Fig. 4 Ran and a phosphate moiety repress GM130 and Importin-β interaction. a SEC (Superdex 200) elution profiles for the Importin-β•GST-GM130-WT complex (black line), Importin-β (gray line), and GST-GM130-WT (light gray line). The void volume (Vo) is indicated. b–d The peak fractions of the Importin-β•GST-GM130-WT complex (b), Importin-β (c), and GST-GM130-WT (d) were analyzed by SDS–PAGE and stained with Coomassie blue. e, f ITC titration curves (upper) and binding isotherms (lower) of Importin-β with GM130-NLS WT (e) and GM130-NLS phospho-S25 (f). Kd values are indicated. g Competition binding assay. GST-GM130-S25D and Importin-β were incubated with indicated concentrations of GFP-IBB. Samples pulled down by GST beads were analyzed by SDS–PAGE and stained with Coomassie blue. […] GST-bound samples were analyzed by SDS–PAGE and stained with Coomassie blue. i, k Band intensities of Importin-α or Importin-β from the SDS–PAGE gels in h, j were used to determine averages of bound protein. […]
GST-GM130-WT and GST-GM130-S25D were, respectively, incubated with Importin-β or Importin-α FL in a molar ratio of 1:1. […] Peak fractions were analyzed by SDS–PAGE.
Background: SEC sorts molecules by how far they enter the pores of the column.

This is an account of results in article PMC6754406, “Ran pathway-independent regulation of mitotic Golgi disassembly by Importin-α” (Nature Communications, 2019).

Where a SMILES comes first, the peptide text is derived from it. Where no end group is shown, it is not given here. [ ]: non-standard residue; d: D form. pS = N[C@@H](COP(=O)(O)O)C(=O)O

T1 sequence (Q14974 whole entry): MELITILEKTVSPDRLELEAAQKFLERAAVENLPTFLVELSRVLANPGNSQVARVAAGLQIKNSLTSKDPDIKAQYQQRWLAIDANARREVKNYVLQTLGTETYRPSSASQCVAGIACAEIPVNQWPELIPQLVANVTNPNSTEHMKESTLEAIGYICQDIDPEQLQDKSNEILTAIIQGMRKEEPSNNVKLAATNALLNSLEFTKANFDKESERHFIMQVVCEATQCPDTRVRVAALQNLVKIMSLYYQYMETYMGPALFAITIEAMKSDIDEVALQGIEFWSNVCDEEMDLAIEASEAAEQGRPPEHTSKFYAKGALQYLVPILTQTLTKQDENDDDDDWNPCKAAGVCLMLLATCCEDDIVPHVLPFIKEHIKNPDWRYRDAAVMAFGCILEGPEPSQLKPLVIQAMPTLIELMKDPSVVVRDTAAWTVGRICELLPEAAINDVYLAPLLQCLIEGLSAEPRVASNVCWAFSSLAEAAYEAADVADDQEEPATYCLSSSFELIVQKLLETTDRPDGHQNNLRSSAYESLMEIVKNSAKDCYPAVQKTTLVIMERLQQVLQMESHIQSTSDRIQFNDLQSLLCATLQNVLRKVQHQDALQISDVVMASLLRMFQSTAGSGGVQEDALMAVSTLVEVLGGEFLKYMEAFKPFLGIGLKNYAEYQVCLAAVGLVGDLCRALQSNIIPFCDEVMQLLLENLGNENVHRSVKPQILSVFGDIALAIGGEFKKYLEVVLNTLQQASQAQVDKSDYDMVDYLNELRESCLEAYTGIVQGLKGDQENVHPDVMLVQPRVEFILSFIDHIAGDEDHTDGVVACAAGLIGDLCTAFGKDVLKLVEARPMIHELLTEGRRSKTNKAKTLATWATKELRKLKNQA

Regarding `CC[C@H](C)[C@H](NC(=O)[C@H](CCCCN)NC(=O)[C@H](CCCCN)NC(=O)[C@H](CCCCN)NC(=O)[C@H](CCCCN)NC(=O)[C@H](CCCCN)NC(=O)[C@H](C)NC(=O)CNC(=O)[C@@H](NC(=O)[C@@H]1CCCN1C(=O)[C@@H](NC(=O)CNC(=O)[C@@H]1CCCN1C(=O)[C@H](COP(=O)(O)O)NC(=O)[C@H](CC(N)=O)NC(=O)[C@H](CCCNC(=N)N)NC(=O)[C@H](CCC(N)=O)NC(=O)[C@H](CCC(N)=O)NC(=O)[C@H](Cc1ccc(O)cc1)NC(=O)[C@H](CCC(=O)O)NC(=O)[C@H](CCCNC(=N)N)NC(=O)[C@H](CC(C)C)NC(=O)[C@H](CCCCN)NC(=O)[C@H](CCCCN)NC(=O)[C@H](CCCCN)NC(=O)[C@H](C)N)C(C)C)[C@@H](C)O)C(=O)N[C@@H](CCCCN)C(=O)N[C@@H](CC(N)=O)C(=O)O` [GM130-NLS phospho-S25] (H-AKKKLREYQQRN[pS]PGVPTGAKKKKKIKN-OH; N-terminus and C-terminus assumed), the “ITC profile (exothermic / endothermic)” value at Importin-β [1] is listed as “endothermic curve”. Also, the “binding constant relative to wild-type GM130 peptide” value at Importin-β [1] (relative to wild-type GM130 peptide) is given as “at least three orders of magnitude lower”. The “binding affinity for Importin-α(ΔIBB) vs wild type” value in test [2] was “better binding affinities”.
Consider `O=C1NC(=NCc2cccs2)S/C1=C\c1ccc2ncccc2c1` [RO-3306], for which the “p115 pulldown by GM130” value in test [3] is given as “enhanced”. Besides, in the test on Cdk1, the “block of Cdk1 activity” value is “sufficient to block Cdk1 activity” and the morphological transition result is “morphological transition from rounded mitotic cells to a flat interphase shape”. In test [4], the “Importin-α pulldown by GM130” value is “reduced”.
In the case of “AKKKLREYQQRNSPGVPTGAKKKKKIK [GM130-NLS WT]”, the “ITC profile (exothermic / endothermic)” value at Importin-β [1] is reported as “exothermic profile”. Further, the “co-migration with Importin-β by SEC” value on Importin-β [5] is “co-migration”.
